{"source": "patent US11690850B2", "about": "“Inhibitors of receptor interacting protein kinase I for the treatment of disease” (Board of Regents, The University of Texas System, priority 2019, dated 2023)", "note": "pIC50: −log10 of the molar value. Where “and” joins values, the source holds several entries; their conditions need not be identical. Equal values may be shown once."}
{"target": "RIPK1 (Homo sapiens (Human), UniProt Q13546)", "sequence (Q13546 1-327)": "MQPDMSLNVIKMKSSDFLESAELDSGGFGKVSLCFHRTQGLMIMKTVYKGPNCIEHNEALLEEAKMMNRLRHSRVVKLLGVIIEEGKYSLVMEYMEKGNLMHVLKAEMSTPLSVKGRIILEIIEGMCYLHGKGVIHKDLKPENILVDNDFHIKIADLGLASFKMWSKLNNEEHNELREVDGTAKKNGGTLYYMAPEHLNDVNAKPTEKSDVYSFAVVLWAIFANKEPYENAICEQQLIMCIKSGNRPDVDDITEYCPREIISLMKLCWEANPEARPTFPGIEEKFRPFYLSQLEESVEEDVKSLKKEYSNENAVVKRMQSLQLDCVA", "test": "ADP-Glo Kinase Assay", "type": "biochemical", "settings": "5 nM RIPK1 protein, 50 μM ATP, 6 hr reaction, average value across multiple runs", "protocol": "In order to measure RIPK1 activity the ADP-Glo kinase assay (Promega, Catalog #V7002) was used to measure the conversion of ATP to ADP. This enzymatic assay was performed in a 384-well white, Optiplate (Perkin Elmer, Catalog #6007299) with assay buffer consisting of 50 mM HEPES pH 7.5 (Gibco, Catalog #15630-080), 50 mM NaCl (Teknova, Catalog #S0252), 30 mM MgCl2 (Ambion, Catalog #AM9530G), 1 mM DTT (Santa Cruz Biotechnology, Catalog #sc-29089), 0.05% BSA (Sigma, Catalog #A3059-50G) and 0.02% CHAPS (Sigma, Catalog #C5070-5G). Stock solutions of the test compounds were prepared in 100% DMSO (Sigma, Catalog #D2650) and serially diluted 1:3 using 100% DMSO. Compounds were additionally diluted 1:40 in assay buffer, and 2 μL/well were transferred to the assay plate. 4 μL/well (final concentration of 5 nM) of RIPK1 protein (SignalChem, Catalog #R07-11G-05) diluted in assay buffer and added to the assay plate followed by a 10 minute preincutation at room temperature. 4 μL/well of ATP (Promega, Catalog #V7002) (final concentration of 50 μM) diluted in assay buffer were then added to the assay plate followed by a 6 hr reaction time. Final concentrations of RIPK1 and ATP refer to a 10 μL volume. Luminescence was measured using a BioTek Synergy™ NEO plate reader. IC50 values were calculated using a four-parameter logistic curve fit using Genedata Screener software. Results are shown below in Table 4, where the average value across multiple runs is given."}
{"smiles": "Cc1cc(=O)c(C(=O)NCc2cc(F)cc(F)c2)nn1-c1ccccc1", "note": "[Example 3, N-(3,5-difluorobenzyl)-6-methyl-4-oxo-1-phenyl-1,4-dihydropyridazine-3-carboxamide]", "pIC50": 4.99}
{"smiles": "Cc1cc(=O)c(C(=O)Nc2ccccn2)nn1-c1ccc(Cl)cc1", "note": "[Example 103, 1-(4-chlorophenyl)-6-methyl-4-oxo-N-(pyridin-2-yl)-1,4-dihydropyridazine-3-carboxamide]", "pIC50": 5.30}
{"smiles": "Cc1nn(C)c(C)c1NC(=O)c1nn(-c2ccccc2)c(C)cc1=O", "note": "[Example 14, 6-methyl-4-oxo-1-phenyl-N-(1,3,5-trimethyl-1H-pyrazol-4-yl)-1,4-dihydropyridazine-3-carboxamide]", "pIC50": 5.34}
{"smiles": "Cc1cc(=O)c(C(=O)Nc2ccccc2)nn1-c1cccc(Cl)c1F", "note": "[Example 7, 1-(3-chloro-2-fluorophenyl)-6-methyl-4-oxo-N-phenyl-1,4-dihydropyridazine-3-carboxamide]", "pIC50": 5.80}
{"smiles": "Cc1cc(=O)c(C(=O)Nc2cnns2)nn1-c1ccccc1", "note": "[Example 116, 6-methyl-4-oxo-1-phenyl-N-(1,2,3-thiadiazol-5-yl)-1,4-dihydropyridazine-3-carboxamide]", "pIC50": "5.07 and 4.76"}
{"smiles": "Cc1cc(=O)c(C(=O)NC2CC2)nn1-c1ccccc1", "note": "[Example 91, N-cyclopropyl-6-methyl-4-oxo-1-phenyl-1,4-dihydropyridazine-3-carboxamide]", "pIC50": 5.28}
{"smiles": "Cc1cc(=O)c(C(=O)Nc2c(C(C)C)n[nH]c2C(C)C)nn1-c1ccccc1", "note": "[Example 90, N-(3,5-diisopropyl-1H-pyrazol-4-yl)-6-methyl-4-oxo-1-phenyl-1,4-dihydropyridazine-3-carboxamide]", "pIC50": 4.38}
{"smiles": "Cc1cc(=O)c(C(=O)Nc2ccn3nccc3c2)nn1-c1ccccc1", "note": "[Example 11, 6-methyl-4-oxo-1-phenyl-N-(pyrazolo[1,5-a]pyridin-5-yl)-1,4-dihydropyridazine-3-carboxamide]", "pIC50": 4.81}
{"smiles": "Cc1cc(=O)c(C(=O)Nc2cccc(Cl)c2F)nn1Cc1ccccc1", "note": "[Example 2, 1-Benzyl-N-(3-chloro-2-fluorophenyl)-6-methyl-4-oxo-1,4-dihydropyridazine-3-carboxamide]", "pIC50": 6.08}
{"smiles": "Cc1cccc(NC(=O)c2nn(-c3ccccc3F)c(C)cc2=O)c1", "note": "[Example 107, 1-(2-fluorophenyl)-6-methyl-4-oxo-N-(m-tolyl)-1,4-dihydropyridazine-3-carboxamide]", "pIC50": 4.69}
{"smiles": "CCn1c(NC(=O)c2nn(-c3ccccc3)c(C)cc2=O)nc2ccccc21", "note": "[Example 101, N-(1-ethyl-1H-benzo[d]imidazol-2-yl)-6-methyl-4-oxo-1-phenyl-1,4-dihydropyridazine-3-carboxamide]", "pIC50": 5.33}
{"smiles": "Cc1cc(=O)c(C(=O)Nc2ccc(F)cc2)nn1-c1ccccc1", "note": "[Example 109, N-(4-fluorophenyl)-6-methyl-4-oxo-1-phenyl-1,4-dihydropyridazine-3-carboxamide]", "pIC50": 4.55}
{"smiles": "Cc1cc(=O)c(C(=O)Nc2cc(F)cc(F)c2)nn1-c1ccccc1", "note": "[Example 92, N-(3,5-difluorophenyl)-6-methyl-4-oxo-1-phenyl-1,4-dihydropyridazine-3-carboxamide]", "pIC50": 6.38}
{"smiles": "Cc1cc(=O)c(C(=O)Nc2c(C(C)C)cccc2C(C)C)nn1-c1ccccc1", "note": "[Example 117, N-(2,6-diisopropylphenyl)-6-methyl-4-oxo-1-phenyl-1,4-dihydropyridazine-3-carboxamide]", "pIC50": 5.92}
{"smiles": "Cc1ccc(NC(=O)c2nn(-c3ccccc3)c(C)cc2=O)cc1", "note": "[Example 97, 6-methyl-4-oxo-1-phenyl-N-(p-tolyl)-1,4-dihydropyridazine-3-carboxamide]", "pIC50": 4.93}
{"smiles": "Cc1cc(=O)c(C(=O)NC(c2ccccc2)C2CC2)nn1-c1ccccc1", "note": "(centres unmarked) [Example 98, N-(cyclopropyl(phenyl)methyl)-6-methyl-4-oxo-1-phenyl-1,4-dihydropyridazine-3-carboxamide]", "pIC50": 5.45}
{"smiles": "Cc1cc(=O)c(C(=O)Nc2ccccc2C2CC2)nn1-c1ccccc1", "note": "[Example 30, N-(2-cyclopropylphenyl)-6-methyl-4-oxo-1-phenyl-1,4-dihydropyridazine-3-carboxamide]", "pIC50": 4.81}
{"smiles": "Cc1cccc(NC(=O)c2nn(-c3ccccc3F)c(C)cc2=O)n1", "note": "[Example 95, 1-(2-fluorophenyl)-6-methyl-N-(6-methylpyridin-2-yl)-4-oxo-1,4-dihydropyridazine-3-carboxamide]", "pIC50": 5.40}
{"smiles": "C#CCNC(=O)c1nn(-c2ccccc2)c(C)cc1=O", "note": "[Example 110, 6-methyl-4-oxo-1-phenyl-N-(prop-2-yn-1-yl)-1,4-dihydropyridazine-3-carboxamide]", "pIC50": 5.80}
{"smiles": "Cc1cc(=O)c(C(=O)Nc2cccc(Cl)c2)nn1-c1ccccc1", "note": "[Example 4, N-(3-chlorophenyl)-6-methyl-4-oxo-1-phenyl-1,4-dihydropyridazine-3-carboxamide]", "pIC50": 7.10}
{"smiles": "Cc1cc(=O)c(C(=O)Nc2cc(Cl)cc(C#N)c2)nn1-c1ccccc1", "note": "[Example 5, N-(3-chloro-5-cyanophenyl)-6-methyl-4-oxo-1-phenyl-1,4-dihydropyridazine-3-carboxamide]", "pIC50": 5.75}
{"smiles": "Cc1cccc(C(F)(F)F)c1NC(=O)c1nn(-c2ccccc2)c(C)cc1=O", "note": "[Example 29, 6-methyl-N-(2-methyl-6-(trifluoromethyl)phenyl)-4-oxo-1-phenyl-1,4-dihydropyridazine-3-carboxamide]", "pIC50": 5.94}
{"smiles": "Cc1ncnc(C)c1NC(=O)c1nn(-c2ccccc2)c(C)cc1=O", "note": "[Example 25, N-(4,6-dimethylpyrimidin-5-yl)-6-methyl-4-oxo-1-phenyl-1,4-dihydropyridazine-3-carboxamide]", "pIC50": 5.41}
{"smiles": "Cc1cc(=O)c(C(=O)Nc2ccc(C#N)s2)nn1-c1ccccc1", "note": "[Example 21, N-(5-cyanothiophen-2-yl)-6-methyl-4-oxo-1-phenyl-1,4-dihydropyridazine-3-carboxamide]", "pIC50": 6.20}
{"smiles": "Cc1cc(=O)c(C(=O)Nc2cccc(F)c2)nn1-c1ccccc1", "note": "[Example 93, N-(3-fluorophenyl)-6-methyl-4-oxo-1-phenyl-1,4-dihydropyridazine-3-carboxamide]", "pIC50": 6.55}
{"smiles": "Cc1cc(=O)c(C(=O)Nc2c(F)cccc2C(C)C)nn1-c1ccccc1", "note": "[Example 27, N-(2-fluoro-6-isopropylphenyl)-6-methyl-4-oxo-1-phenyl-1,4-dihydropyridazine-3-carboxamide]", "pIC50": 5.84}
